Some test systems named below: IGROV1 ovarian; NCI-H522 lung; CAKI-1 renal; BT-549 breast; OVCAR-4 ovarian; MDA-MB-435; RPMI-8226 leukemia; SK-OV-3 ovarian; SNB-19 CNS; NCI/ADR-RES ovarian.
What all share (test): NCI anticancer screen, dose series, 48 h

The results in this text go back to PubChem BioAssay (NCI).

Several values for one entry are separate records, joined by “and”; a condition that tells them apart may be missing. Equal entries are not always repeated.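 How tested: cells in 96-well plates exposed to compound for 48 hours at five concentrations. Abbreviation: GI50, concentration required for 50% inhibition of growth. TGI denotes the concentration required for complete inhibition of growth.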

Take `C=C(CNCCc1ccc(O)cc1)[C@@H]1CC[C@]2(CO)CC[C@]3(C)[C@H](CC[C@@H]4[C@@]5(C)CCC(=O)C(C)(C)[C@@H]5CC[C@]43C)[C@@H]12`: the GI50 with IGROV1 ovarian is 1.68 µM; with NCI-H522 lung it was 1.69 µM; in the experiment with CAKI-1 renal it was 1.57 µM; in the experiment with BT-549 breast, 1.71 µM; in the experiment with OVCAR-4 ovarian it was 1.65 µM; in the experiment on MDA-MB-435, 1.74 µM. The GI50 is 1.79 µM in the experiment on RPMI-8226 leukemia, 1.79 µM with SK-OV-3 ovarian and 1.62 µM in the experiment on SNB-19 CNS. The TGI was determined as 3.3 µM in the experiment with IGROV1 ovarian; 3.23 µM in the experiment with NCI-H522 lung; 2.96 µM in the experiment with CAKI-1 renal; 3.29 µM in the experiment with BT-549 breast; 3.12 µM in the experiment with OVCAR-4 ovarian; 3.22 µM in the experiment with MDA-MB-435. Also, the TGI in the experiment with RPMI-8226 leukemia worked out at 4.45 µM; with SK-OV-3 ovarian, 3.51 µM; with SNB-19 CNS, 3.02 µM.
As to `N#Cc1c[nH]n2ccnc12`, the TGI in the experiment with IGROV1 ovarian, in the experiment on NCI-H522 lung, in the experiment on CAKI-1 renal, with BT-549 breast, in the experiment on NCI/ADR-RES ovarian and in the experiment with OVCAR-4 ovarian was greater than 100 µM throughout. Besides, the TGI in the experiment with SK-OV-3 ovarian and in the experiment on SNB-19 CNS was greater than 100 µM throughout.
For the molecule `Cc1ccc(S(=O)(=O)N2CCC3(C(/C=C/c4ccccc4)=Nc4ccccc43)C2c2ccccc2)cc1` (stereo unspecified), the TGI was 24.6 µM in the experiment with IGROV1 ovarian; greater than 100 µM in the experiment on NCI-H522 lung; greater than 100 µM in the experiment with CAKI-1 renal; greater than 100 µM in the experiment on OVCAR-4 ovarian; greater than 100 µM in the experiment with RPMI-8226 leukemia; greater than 100 µM with SK-OV-3 ovarian. The TGI in the experiment on SNB-19 CNS is greater than 100 µM.
Turning to `CC1=C(C(=O)Nc2ccccc2C)C(c2ccc([N+](=O)[O-])cc2)C(C(=O)Nc2ccccc2C)=C(C)N1`, the TGI in the experiment with IGROV1 ovarian, in the experiment on NCI-H522 lung, in the experiment on CAKI-1 renal, in the experiment with OVCAR-4 ovarian, with RPMI-8226 leukemia and in the experiment with SK-OV-3 ovarian was greater than 100 µM in each case. Moreover, the TGI in the experiment with SNB-19 CNS is greater than 100 µM.
Turning to `CC(=O)OCC1OC(OC2CC3C(C)(C)C(OC(C)=O)CC[C@]3(C)C3CCC45CC4(CC[C@H]5C(C)CC(O)C4OC4(C)C)[C@]23C)C(O)C(O)C1O` (stereo partly specified), the GI50 in the experiment on IGROV1 ovarian was 2.42 µM; in the experiment with NCI-H522 lung, 1.91 µM; with CAKI-1 renal it was 15.6 µM; with OVCAR-4 ovarian it was 15.3 µM; in the experiment on SK-OV-3 ovarian, 3.22 µM; in the experiment with SNB-19 CNS, 4.97 µM. Moreover, the TGI with IGROV1 ovarian is 0.829 µM and 4.56 µM; in the experiment with NCI-H522 lung, 5.33 µM and 3.91 µM; in the experiment on CAKI-1 renal it was 12.2 µM and 29.9 µM; with OVCAR-4 ovarian, 6.27 µM and 38.9 µM; in the experiment with RPMI-8226 leukemia, 5 µM; in the experiment on SK-OV-3 ovarian, 8.7 µM and 11.2 µM. The TGI in the experiment with SNB-19 CNS was 12.4 µM and 17.6 µM.
Regarding `CC[C@@]1(O)C(=O)OCc2c1cc1n(c2=O)Cc2cc3cc(OC)ccc3nc2-1`, the TGI is 0.945 µM in the experiment on IGROV1 ovarian; 0.437 µM and 1.99 µM in the experiment with NCI-H522 lung; 0.0908 µM with CAKI-1 renal; 0.169 µM with NCI/ADR-RES ovarian; 0.247 µM and 0.333 µM in the experiment with MDA-MB-435; 8.46 µM and 1.23 µM in the experiment with RPMI-8226 leukemia. Moreover, in the experiment with SNB-19 CNS, the TGI is 4.19 µM. The GI50 in the experiment on NCI/ADR-RES ovarian is 0.0204 µM; in the experiment with OVCAR-4 ovarian, 0.682 µM; in the experiment on MDA-MB-435 it was 0.117 µM; in the experiment with RPMI-8226 leukemia it was 0.0411 µM.
In the case of `CCCCCCCCCCCCCC/C(C(=O)OC)=C(/O)C(=O)OCC`, the TGI in the experiment with IGROV1 ovarian, in the experiment on NCI-H522 lung, with CAKI-1 renal, in the experiment with OVCAR-4 ovarian, with RPMI-8226 leukemia and with SK-OV-3 ovarian was greater than 100 µM each time. Moreover, the TGI in the experiment with SNB-19 CNS is greater than 100 µM.
Regarding `CC(=O)O[C@H]1[C@@H]2[C@@H]3[C@@H](C[C@H]1C)[C@@H](C)CO[C@@]1(C)CC/C=C(/C)C[C@@H]2O[C@@H]31`, the TGI with IGROV1 ovarian, with NCI-H522 lung, in the experiment on CAKI-1 renal, with OVCAR-4 ovarian, in the experiment on RPMI-8226 leukemia and in the experiment on SK-OV-3 ovarian was greater than 100 µM each time. In addition, in the experiment with SNB-19 CNS, the TGI was greater than 100 µM.
With `CCc1cccc(CC)c1NC(=S)NC(=O)c1ccc(Br)cc1`, the TGI was greater than 100 µM in the experiment with IGROV1 ovarian; 51.3 µM in the experiment on NCI-H522 lung; greater than 96 µM in the experiment on CAKI-1 renal; greater than 100 µM with NCI/ADR-RES ovarian; greater than 50.4 µM in the experiment on OVCAR-4 ovarian; 83.5 µM with MDA-MB-435. In addition, the TGI with RPMI-8226 leukemia, in the experiment on SK-OV-3 ovarian and in the experiment with SNB-19 CNS was greater than 100 µM throughout.
On to `CC(=O)NNc1nc(C)c(C(/C=C/c2ccc(Cl)cc2)=N\NS(=O)(=O)c2ccc(C)cc2)s1`, for which the TGI in the experiment on IGROV1 ovarian, in the experiment with NCI-H522 lung, with CAKI-1 renal, in the experiment on OVCAR-4 ovarian, with RPMI-8226 leukemia and with SK-OV-3 ovarian was greater than 100 µM each time. For the same molecule, in the experiment on SNB-19 CNS, the TGI was greater than 100 µM.
On to `CCOc1ccccc1NC(=O)CCc1nnc2s/c(=C\CCc3ccccc3)c(=O)n12`, for which the TGI with IGROV1 ovarian, in the experiment on NCI-H522 lung, with CAKI-1 renal, in the experiment on OVCAR-4 ovarian, in the experiment with RPMI-8226 leukemia and with SK-OV-3 ovarian was greater than 100 µM each time. Further, the TGI in the experiment on SNB-19 CNS was greater than 100 µM.
In the case of `O=C([O-])c1ccc2c(c1)-c1nc-2nc2[n-]c(nc3nc(nc4[n-]c(n1)c1ccc(C(=O)[O-])cc41)-c1cc(C(=O)[O-])ccc1-3)c1ccc(C(=O)[O-])cc21.[Fe+2]`, the GI50 with IGROV1 ovarian was greater than 50 µM; in the experiment on NCI-H522 lung it was greater than 50 µM; with CAKI-1 renal it was greater than 50 µM; with OVCAR-4 ovarian it was 49.2 µM; in the experiment with RPMI-8226 leukemia it was greater than 27.3 µM; with SK-OV-3 ovarian it was greater than 50 µM. In addition, the GI50 in the experiment on SNB-19 CNS is greater than 50 µM. The TGI in the experiment with IGROV1 ovarian is greater than 50 µM; in the experiment on NCI-H522 lung it was greater than 50 µM; in the experiment with CAKI-1 renal, greater than 50 µM; with OVCAR-4 ovarian, greater than 50 µM; in the experiment with RPMI-8226 leukemia it was greater than 36.4 µM; in the experiment on SK-OV-3 ovarian, greater than 50 µM. The molecule also had a TGI with SNB-19 CNS greater than 50 µM.
As to `FC(F)(F)c1ccc(C=NC23CC4CC(CC(C4)C2)C3)cc1`, the TGI in the experiment with IGROV1 ovarian, with NCI-H522 lung, in the experiment with CAKI-1 renal, in the experiment on OVCAR-4 ovarian, in the experiment with RPMI-8226 leukemia and in the experiment on SK-OV-3 ovarian was greater than 100 µM in each case. In the experiment on SNB-19 CNS, this molecule yielded a TGI greater than 100 µM.
For the molecule `COC(=O)c1ccccc1NC(=O)C(=O)CC(=O)c1ccccc1NC1=CC(=O)C(=O)c2ccccc21`, the TGI was greater than 59.6 µM in the experiment with IGROV1 ovarian; 21.4 µM in the experiment with NCI-H522 lung; 74.1 µM in the experiment on CAKI-1 renal; 39.4 µM with BT-549 breast; 36.2 µM in the experiment with OVCAR-4 ovarian; 8.59 µM in the experiment with MDA-MB-435. For the same molecule, the TGI came to 35.1 µM with RPMI-8226 leukemia, 96.1 µM in the experiment with SK-OV-3 ovarian and 77.5 µM in the experiment on SNB-19 CNS.
As for `CC1CCCC(C(O)CC2CC(=O)N(c3ccccc3)C(=O)C2)C1=O` (stereo unspecified), the TGI in the experiment with IGROV1 ovarian, in the experiment on NCI-H522 lung, with CAKI-1 renal, with OVCAR-4 ovarian, in the experiment on RPMI-8226 leukemia and in the experiment on SK-OV-3 ovarian was greater than 100 µM in each case. For the same molecule, the TGI in the experiment with SNB-19 CNS was greater than 100 µM.
On to `N#C/C(=C\c1ccc(Br)cc1)n1nnc2cccc(F)c21`, for which the GI50 is 2.05 µM in the experiment on CAKI-1 renal; 1.45 µM with BT-549 breast; 0.398 µM with NCI/ADR-RES ovarian; 1.65 µM in the experiment on OVCAR-4 ovarian; 0.295 µM in the experiment on MDA-MB-435; 0.416 µM in the experiment with RPMI-8226 leukemia. In the experiment with SNB-19 CNS, the GI50 is 1.63 µM. Besides, the TGI with CAKI-1 renal was 4.99 µM; with BT-549 breast, 3.1 µM; in the experiment on NCI/ADR-RES ovarian it was 2.19 µM; in the experiment on OVCAR-4 ovarian it was 3.49 µM; in the experiment on MDA-MB-435 it was 0.913 µM; with RPMI-8226 leukemia, 4.25 µM. Besides, in the experiment on SNB-19 CNS, the TGI turned out to be 3.35 µM.
For the molecule `COc1cc(/C=C/C(=O)c2cc(F)c(Cl)cc2Cl)cc(OC)c1OC`, the GI50 in the experiment with CAKI-1 renal is 27.6 µM; in the experiment on BT-549 breast, 53.2 µM; with NCI/ADR-RES ovarian, 23.9 µM; in the experiment with OVCAR-4 ovarian, 48.6 µM; in the experiment on MDA-MB-435, 28.1 µM; in the experiment with RPMI-8226 leukemia it was 15.2 µM. Further, the GI50 with SK-OV-3 ovarian was greater than 100 µM; with SNB-19 CNS, 39.6 µM. Further, the TGI in the experiment on CAKI-1 renal is greater than 100 µM; in the experiment on BT-549 breast, greater than 100 µM; with NCI/ADR-RES ovarian, 83.8 µM; in the experiment on OVCAR-4 ovarian, greater than 100 µM; with MDA-MB-435 it was greater than 100 µM; with RPMI-8226 leukemia it was 52.9 µM. Also, the TGI in the experiment on SK-OV-3 ovarian and with SNB-19 CNS was greater than 100 µM in each case.
Regarding `NC1=NC(c2ccccc2)N=C(Nc2ccccc2)N1` (stereo unspecified), the GI50 with IGROV1 ovarian is 39.4 µM; with CAKI-1 renal, greater than 100 µM; in the experiment on BT-549 breast it was greater than 100 µM; in the experiment on NCI/ADR-RES ovarian it was greater than 100 µM; in the experiment on OVCAR-4 ovarian it was greater than 100 µM; with MDA-MB-435, 34.5 µM. For the same molecule, the GI50 in the experiment with RPMI-8226 leukemia, in the experiment on SK-OV-3 ovarian and in the experiment with SNB-19 CNS was greater than 100 µM throughout. Further, the TGI in the experiment with IGROV1 ovarian, in the experiment on CAKI-1 renal, in the experiment on BT-549 breast, with NCI/ADR-RES ovarian, in the experiment with OVCAR-4 ovarian and in the experiment with MDA-MB-435 was greater than 100 µM throughout. The TGI with RPMI-8226 leukemia, in the experiment on SK-OV-3 ovarian and in the experiment with SNB-19 CNS was greater than 100 µM each time.
